# In patent publication US20240358829A1, “Lymphocyte Population and Methods for Producing Same” (AVM Biotechnology, LLC, priority 2021, published 2024):
# “Also recorded” adds a separate entry of the source. Like-named read-outs stand apart in the source and are kept apart here.
# Assays:
# [1] = system: AVM-NKT cells (CD3highCD49b+); type: in vivo, mouse; conditions: for induction of AVM-NKT cells by comparators: naïve mice, standard Cy/Flu chemotherapy or methylprednisone
# Description: Mice were anesthetized with isoflurane gas.
# [2] = system: human AVM-NKT cells (human CD56+ cells); experiment: Humanized mice orally dosed with DSP (Example 8); type: in vivo, mouse; conditions: oral HED 18-45 mg/kg, 24-48 hours later
# Protocol: BRGSF humanized mice on a Balb/c background from Genoway generated by transplanting human umbilical cord blood CD34+ stem cells into irradiated mice that lack mouse B and T lymphocytes and NK cells but have a functional mouse complement system are orally dosed with HED 18-45 mg/kg DSP.
# NCG mice are humanized by adoptive transfer using human umbilical cord blood-derived CD34+ stem cells, following myeloablation treatment. NCG mice from 4 donors (n=2 per donor) are orally dosed with HED 18-45 mg/kg DSP.
# huNOG EXL from Taconic have an average of 54% of CD45 cells positive for human CD45. Six huNOG EXL humanized immune system mice from 3 donors (n=2 per donor) are orally dosed with HED 18-45 mg/kg DSP.
# [3] = system: mouse whole blood and splenocytes; experiment: Ex vivo/in vitro dexamethasone concentration-response curve
# [4] = system: R/R NHL; experiment: AVM0703 R/R NHL clinical trial, clinical and PET/CT response, survival; type: in vivo, human; conditions: patient 108-004, 12 mg/kg; listed as DP
# [5] = system: A20 B cell lymphoma; conditions: 18 mg/kg HED
# Protocol: FIG. 10B. […] Mice were inoculated with A20 lymphoma 2×10^6 cells in 100 μL of PBS mixed with 100 μL of chilled Matrigel into their flank. Three, 24 and 48 hours later mice were euthanized and tumors, blood, bone marrow and thymus were taken and made into single cell suspensions for flow cytometry detection of live A20 cells.
# [6] = system: CD56+γδTCR+iTCR+ cells; experiment: AVM0703 R/R NHL clinical trial, whole blood flow cytometry; type: in vivo, human; conditions: listed as DP
# Protocol: FIG. 15. 101-001 size (FSC) and complexity (SSC) scattergram of AVM_NKT cells. […] Blood was stained with panel antibodies based for 15 minutes in the dark at Room Temperature. RBC lysis was performed by addition of 1 mL of 1×BD FACS Lysing Solution (BD Bioscience), diluted with MilliQ water, for 10 minutes in the dark at Room Temperature. Samples were washed with 2 mL 1×DPBS CMF (Gibco) and resuspended in 300 μL of 1×DPBS CMF before 5 μL of 7AAD (Biolegend) was added to each sample for live/dead cell determination and incubated for 5 minutes in the dark at Room Temperature. 250 μL of sample were taken up for acquisition on Macsquant 16 Flow Cytometer (Miltenyi, Serial #40150). Live white blood cells were gated for CD56+ cells co-expressing gamma delta TCR and the invariant TCR and labelled red in the forward versus side scattergram. Red-labelled cells fall within the forward versus side scattergrams where large granular cells such as neutrophils and large granular lymphocytes are known to fall.
# For characterisation of the induced/mobilized population of NKT-like cells (AVM-NKT) in humans, whole blood from human subjects was drawn in K2 EDTA Vacutainer tube (367862, BD Biosciences, NJ) and shipped to AVM Biotechnology at room temperature. 100 μl of whole blood was stained with the following antibodies: CD45 AF700 (2D1), CD16 APC (3G8), INKT PECy7 (6B11), CD8 PE (SK1), CD14 FITC (M5E2), CD56 BV650 (5.1H11), γδTCR BV510 (B1), CD19 BV421 (HIB19), NKp44 APC (P44-8) (all from Biolegend, San Diego, CA) and CD3 APCVio770 (BW264/56), (Miltenyi Biotec, San Jose, CA), 7-AAD, (Biolegend, San Diego CA) was included to distinguish the live and dead cells.
# [7] = in vivo; cited from earlier work
# [8] = system: peripheral blood lymphocytes; experiment: Lymphodepletion study in naïve mice (complete blood count, flow cytometry)
# Protocol: For initial lymphodepletion studies, naïve C57Bl/6 mice were treated with 18 mg/kg HED DP by oral gavage. Male C57BL/6 mice were obtained from Taconic Bioscience (Germantown, NY) and acclimated to laboratory conditions for at least one week. […] Each dosed timepoint group was accompanied by a placebo group of the same age and condition according to Table 3. […] When mice reached study timepoint, they were euthanized as follows. Mice were anesthetized with isoflurane gas. Once anesthetized, blood was drawn via cardiac puncture and place immediately in heparin-lined microtubes. 10 mL of 5 U/mL of Heparin/PBS was used for infused by slow push for retrograde perfusion via the abdominal aorta to flush out all remaining blood from the vasculature. Subsequently, 250 μL of blood was transferred to a lavender-topped EDTA-lined microtube and transported to by Lynette Brown at Flow Contract Site Labs (Bothell, WA) for analysis by flow cytometry. The remaining blood was sent to Phoenix Labs (Mukilteo, WA) for Complete Blood Counts and Clinical Chemistries
# [9] = system: A20 cells; experiment: A20 cells treated with high dose dexamethasone in vitro; type: cell-based, mouse; conditions: 72 hours after high dose dexamethasone treatment in vitro
compound,measurement,setting,value
methylprednisone,induction of AVM-NKT cells by comparators,[1],not induced
"C[C@@H]1C[C@H]2[C@@H]3CCC4=CC(=O)C=C[C@]4(C)[C@@]3(F)[C@@H](O)C[C@]2(C)[C@@]1(O)C(=O)COP(=O)(O)O [DSP, Dexamethasone sodium phosphate]",cell population corresponding to AVM-NKT cells,[2]; BRGSF humanized mice,can be observed
same,"cells corresponding to AVM-NKT cells, % of total splenocytes",[2]; HuCD34-NCG mice,0.2-3%
same,"cells corresponding to AVM-NKT cells, % of total splenocytes",[2]; huNOG EXL mice,0.2-3%
C[C@@H]1C[C@H]2[C@@H]3CCC4=CC(=O)C=C[C@]4(C)[C@@]3(F)[C@@H](O)C[C@]2(C)[C@@]1(O)C(=O)CO [dexamethasone base],"induction of AVM-NKT cells, dose escalation",[1]; 15 mg/kg HED,particularly robust production
same,"induction of AVM-NKT cells, dose escalation",[1]; 6+6 mg/kg HED: 6 mg/kg at time 0 and 6 mg/kg 24 hours later,particularly robust production
same,"induction of AVM-NKT cells, dose escalation",[1]; single dose between 6-12 mg/kg HED,can induce AVM-NKT cells
same,human equivalent dose giving an in vivo peak blood concentration of 100 uM,[3],~2.8 mg/kg
same,response of RBCs,"[3]; ex vivo, any concentration (data not shown)",no response
same,concentration above which apoptosis decreases (biphasic curve),"[3]; isolated mouse splenocytes and whole blood, 6 hours incubation",above 100 uM
"C[C@@H]1C[C@H]2[C@@H]3CCC4=CC(=O)C=C[C@]4(C)[C@@]3(F)[C@@H](O)C[C@]2(C)[C@@]1(O)C(=O)COP(=O)(O)O [dexamethasone phosphate, Dexamethasone phosphate, reference compound]","objective beneficial response (PET/CT, clinical chemistries, CBCs or clinical symptoms)",[4],did not have a clinical response
same,time of maximal ablation of A20 lymphoma implanted in the flank,[5],≤ 3 h
same,time of maximal eradication of A20 metastasis to blood and thymus,[5],24 h
same,time of maximal eradication of A20 metastasis to bone marrow,[5],48 h
same,CD56+ γδTCR+ iTCR+ cells/uL,"[6]; patient 103-005, 9 mg/kg, 1 hour post-infusion",22 cells/uL
same,CD56+γδTCR+invTCR+ cells in blood,"[6]; patient 108-004, 12 mg/kg, one hour, 3 days or 14 days after infusion (pre-infusion 0.09%, 4.6 cells/uL)",no evidence
C[C@]12C=CC(=O)C=C1CC[C@@H]1[C@@H]2C(=O)C[C@@]2(C)[C@H]1CC[C@]2(O)C(=O)CO [prednisone],biologic half-life,[7],about 20 hours
cyclophosphamide/fludarabine [Cy/Flu],induction of AVM-NKT cells by comparators,[1],not induced
same,induction of AVM-NKT cells by comparators,[1]; listed as Cyclophosphamide/fludarabine,does not induce
same,Total NKT cell numbers,"[8]; 13 mg/kg HED cyclophosphamide and 0.8 mg/kg HED fludarabine, 48 hours",no such increase
C[C@@H]1C[C@H]2[C@@H]3CCC4=CC(=O)C=C[C@]4(C)[C@@]3(F)[C@@H](O)C[C@]2(C)[C@@]1(O)C(=O)CO [dexamethasone],time to induction of AVM-NKT cells in the spleen,"[1]; normal mice, after dexamethasone dosing",≤ 48 h
same,apoptosis of A20 cells,[9],about 30%
same,platelet numbers,"[8]; 18 mg/kg HED DP, 18 mg/kg",spared; also recorded: does not affect
same,number of live hematopoietic stem cells,"[8]; 18 mg/kg HED DP, 6 hours to 35 days, 18 mg/kg",spared or increased; also recorded: does not significantly alter
same,Basophils,[8]; high-dose dexamethasone,reduced only at the 6 hour time point
same,MSCs,[8]; high-dose dexamethasone,spared or increased
same,RBCs,[8]; high-dose dexamethasone,spared
same,eosinophils,[8]; high-dose dexamethasone,reduced only at the 24 and 48 hour time points
